The text below walks through data of US20260207615A1, “FLUOROPYRIDOPYRIMIDINE AND FLUOROQUINAZOLINE DERIVATIES AND METHODS OF USE THEREOF” (Frontier Medicines Corporation, priority 2022, published 2026).

T1 sequence (P01116 1-169 isoform P01116-2 G12C/C51S/C80L/C118S): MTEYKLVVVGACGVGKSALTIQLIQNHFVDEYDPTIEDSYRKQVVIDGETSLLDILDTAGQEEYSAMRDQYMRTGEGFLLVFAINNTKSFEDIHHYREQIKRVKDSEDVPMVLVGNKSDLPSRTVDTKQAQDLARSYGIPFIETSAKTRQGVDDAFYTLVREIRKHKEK

The assay concerns the target T1, KRAS G12C and cRAF interaction (Homo sapiens, UniProt P01116, C118S/C51S/C80L/G12C).
T1 construct: truncated version comprising amino acids 1-169
The assay is described as follows: Inhibition of KRAS G12C and cRAF binding (AlphaScreen). It is filed as biochemical. The conditions noted are these: KRAS G12C (Cys-light, aa 1-169) preloaded with GMPPNP, cRaf RBD (aa 50-131), 2 hours incubation. An outline of the steps:
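Biotin-AviTag KRAS G12C (Cys-light C51S/C80L/C118S, aa 1-169, GMPPNP-loaded; 0.5 nM final)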
On the technique in general: In Alpha technology, singlet oxygen from a donor bead excites a nearby acceptor bead.
The term IC50 denotes the midpoint of a concentration-inhibition curve. A higher IC50 goes with a need for much substance. For `CN1CC[C@@H]1/C=C/C(=O)N1CCN(c2nc(OC[C@@]34CCCN3C[C@H](F)C4)nc3c(F)c(-c4cccc5cccc(Cl)c45)ncc23)CC12COC2` [Example 37, (E)-1-(8-(7-(8-chloronaphthalen-1-yl)-8-fluoro-2-(((2R,7aS)-2-fluorotetrahydro-1H-pyrrolizin-7a(5H)-yl)methoxy)pyrido[4,3-d]pyrimidin-4-yl)-2-oxa-5,8-diazaspiro[3.5]nonan-5-yl)-3-((R)-1-methylazetidin-2-yl) prop-2-en-1-one], the IC50 was 10 to 100 nM. In turn, `O=C(/C=C/CN1C[C@H]2C[C@@H]1CO2)N1CCN(c2nc(OC[C@@]34CCCN3C[C@H](F)C4)nc3c(F)c(-c4cccc5ccc(F)c(F)c45)ncc23)CC12COC2` [Example 19, (E)-4-((1R,4R)-2-oxa-5-azabicyclo[2.2.1]heptan-5-yl)-1-(8-(7-(7,8-difluoronaphthalen-1-yl)-8-fluoro-2-(((2R,7aS)-2-fluorotetrahydro-1H-pyrrolizin-7a(5H)-yl)methoxy)pyrido[4,3-d]pyrimidin-4-yl)-2-oxa-5,8-diazaspiro[3.5]nonan-5-yl) but-2-en-1-one] displayed an IC50 of less than 10 nM.

Turning to `C=CC(=O)N1CCN(c2nc(OC[C@@]34CCCN3C[C@H](F)C4)nc3c(F)c(-c4ccc(F)c5sc(N)nc45)c(Cl)cc23)CC12CCOC2` (stereo partly drawn) [Example 86], the IC50 was 100 to 500 nM. With `O=C(/C=C/CN1CC2CC(C1)O2)N1CCN(c2nc(OC[C@@]34CCCN3C[C@H](F)C4)nc3c(F)c(-c4cccc5cccc(Cl)c45)ncc23)CC12COC2` [Example 14, (E)-4-(6-oxa-3-azabicyclo[3.1.1]heptan-3-yl)-1-(8-(7-(8-chloronaphthalen-1-yl)-8-fluoro-2-(((2R,7aS)-2-fluorotetrahydro-1H-pyrrolizin-7a(5H)-yl)methoxy)pyrido[4,3-d]pyrimidin-4-yl)-2-oxa-5,8-diazaspiro[3.5]nonan-5-yl) but-2-en-1-one], the IC50 lay within 10 to 100 nM. In turn, `O=C(/C=C/CN1CC2CC(C1)O2)N1CCN(c2nc(OC[C@@]34CCCN3C[C@H](F)C4)nc3c(F)c(-c4cccc5ccc(F)c(F)c45)ncc23)CC12COC2` [Example 20, (E)-4-(6-oxa-3-azabicyclo[3.1.1]heptan-3-yl)-1-(8-(7-(7,8-difluoronaphthalen-1-yl)-8-fluoro-2-(((2R,7aS)-2-fluorotetrahydro-1H-pyrrolizin-7a(5H)-yl)methoxy)pyrido[4,3-d]pyrimidin-4-yl)-2-oxa-5,8-diazaspiro[3.5]nonan-5-yl) but-2-en-1-one] returned an IC50 of less than 10 nM.

For the molecule `Cc1nccc(/C=C/C(=O)N2CCN(c3nc(OC[C@@]45CCCN4C[C@H](F)C5)nc4c(F)c(-c5cccc6ccc(F)c(Cl)c56)ncc34)CC23COC3)n1` [Example 6, (E)-1-(8-(7-(8-chloro-7-fluoronaphthalen-1-yl)-8-fluoro-2-(((2R,7aS)-2-fluorotetrahydro-1H-pyrrolizin-7a(5H)-yl)methoxy)pyrido[4,3-d]pyrimidin-4-yl)-2-oxa-5,8-diazaspiro[3.5]nonan-5-yl)-3-(2-methylpyrimidin-4-yl) prop-2-en-1-one], the IC50 is 10 to 100 nM.

For the molecule `C=CC(=O)N1CCN(c2nc(OC[C@@]34CCCN3C[C@H](F)C4)nc3c(F)c(-c4ccc(F)c5sc(N)nc45)c(C(F)(F)F)cc23)C[C@@]12CCOC2` [Example 93], the IC50 is not below 500 nM.

With `C=CC(=O)N1CCN(c2nc(OC[C@@]34CCCN3C[C@H](F)C4)nc3c(F)c(-c4cccc5ccc(F)c(F)c45)ncc23)CC12COC2` [Example 35, 1-(8-(7-(7,8-difluoronaphthalen-1-yl)-8-fluoro-2-(((2R,7aS)-2-fluorotetrahydro-1H-pyrrolizin-7a(5H)-yl)methoxy)pyrido[4,3-d]pyrimidin-4-yl)-2-oxa-5,8-diazaspiro[3.5]nonan-5-yl) prop-2-en-1-one], the IC50 is less than 10 nM. Molecule `C=CC(=O)N1[C@@H](C)CN(c2nc(OC[C@@]34CCCN3C[C@H](F)C4)nc3c(F)c(-c4cccc5ccc(F)c(F)c45)ncc23)CC12COC2` [Example 70] had an IC50 not below 500 nM. In the case of `Cc1nccc(/C=C/C(=O)N2CCN(c3nc(OC[C@@]45CCCN4C[C@H](F)C5)nc4c(F)c(-c5cccc6cccc(Cl)c56)ncc34)CC23COC3)n1` [Example 2, (E)-1-(8-(7-(8-chloronaphthalen-1-yl)-8-fluoro-2-(((2R,7aS)-2-fluorotetrahydro-1H-pyrrolizin-7a(5H)-yl)methoxy)pyrido[4,3-d]pyrimidin-4-yl)-2-oxa-5,8-diazaspiro[3.5]nonan-5-yl)-3-(2-methylpyrimidin-4-yl) prop-2-en-1-one], the IC50 lay in the range of 100 to 500 nM. In turn, `C=CC(=O)N1CCN(c2nc(OC[C@@]34CCCN3C[C@H](F)C4)nc3c(F)c(-c4ccc(F)c5sc(N)nc45)c(Cl)cc23)C[C@@]12CCOC2` [Example 91] yielded an IC50 of 100 to 500 nM. For the molecule `C=CC(=O)N1CCN(c2nc(OC[C@@]34CCCN3C[C@H](F)C4)nc3c(F)c(-c4cccc5cccc(Cl)c45)ncc23)CC12CCOC2` (stereo partly drawn) [Example 84], the IC50 fell in the range of 100 to 500 nM. The molecule `C=CC(=O)N1CCN(c2nc(OC[C@@]34CCCN3C[C@H](F)C4)nc3c(F)c(-c4cccc5ccc(F)c(Cl)c45)ncc23)CC12COC2` [Example 33, 1-(8-(7-(8-chloro-7-fluoronaphthalen-1-yl)-8-fluoro-2-(((2R,7aS)-2-fluorotetrahydro-1H-pyrrolizin-7a(5H)-yl)methoxy)pyrido[4,3-d]pyrimidin-4-yl)-2-oxa-5,8-diazaspiro[3.5]nonan-5-yl) prop-2-en-1-one] came in with an IC50 of 10 to 100 nM. For `O=C(/C=C/CN1[C@@H]2CC[C@H]1COC2)N1CCN(c2nc(OC[C@@]34CCCN3C[C@H](F)C4)nc3c(F)c(-c4cccc(Cl)c4C(F)(F)F)ncc23)CC12COC2` [Example 56, (E)-4-((1R,5S)-3-oxa-8-azabicyclo[3.2.1]octan-8-yl)-1-(8-(7-(3-chloro-2-(trifluoromethyl)phenyl)-8-fluoro-2-(((2R,7aS)-2-fluorotetrahydro-1H-pyrrolizin-7a(5H)-yl)methoxy)pyrido[4,3-d]pyrimidin-4-yl)-2-oxa-5,8-diazaspiro[3.5]nonan-5-yl) but-2-en-1-one], the IC50 was less than 10 nM.

In the case of `C#Cc1c(F)ccc2cccc(-c3ncc4c(N5CCN(C(=O)/C(F)=C/c6ccnc(C)n6)C6(COC6)C5)nc(OC[C@@]56CCCN5C[C@H](F)C6)nc4c3F)c12` [Example 49, (Z)-1-(8-(7-(8-ethynyl-7-fluoronaphthalen-1-yl)-8-fluoro-2-(((2R,7aS)-2-fluorotetrahydro-1H-pyrrolizin-7a(5H)-yl)methoxy)pyrido[4,3-d]pyrimidin-4-yl)-2-oxa-5,8-diazaspiro[3.5]nonan-5-yl)-2-fluoro-3-(2-methylpyrimidin-4-yl) prop-2-en-1-one], the IC50 is less than 10 nM. `O=C(C#CCN1CC2CCC(C1)O2)N1CCN(c2nc(OC[C@@]34CCCN3C[C@H](F)C4)nc3c(F)c(-c4cccc5cccc(Cl)c45)ncc23)CC12COC2` [Example 47, 4-(8-oxa-3-azabicyclo[3.2.1]octan-3-yl)-1-(8-(7-(8-chloronaphthalen-1-yl)-8-fluoro-2-(((2R,7aS)-2-fluorotetrahydro-1H-pyrrolizin-7a(5H)-yl)methoxy)pyrido[4,3-d]pyrimidin-4-yl)-2-oxa-5,8-diazaspiro[3.5]nonan-5-yl) but-2-yn-1-one] displayed an IC50 of 100 to 500 nM. Then `C=CC(=O)N1CCN(c2nc(OC[C@@]34CCCN3C[C@H](F)C4)nc3c(F)c(-c4cccc(Cl)c4C4CC4)ncc23)CC12COC2` [Example 38, 1-(8-(7-(3-chloro-2-cyclopropylphenyl)-8-fluoro-2-(((2R,7aS)-2-fluorotetrahydro-1H-pyrrolizin-7a(5H)-yl)methoxy)pyrido[4,3-d]pyrimidin-4-yl)-2-oxa-5,8-diazaspiro[3.5]nonan-5-yl) prop-2-en-1-one], with 10 to 100 nM; and `CN1CC[C@@H]1/C=C/C(=O)N1CCN(c2nc(OC[C@@]34CCCN3C[C@H](F)C4)nc3c(F)c(-c4cc(O)cc(Cl)c4C4CC4)ncc23)CC12COC2` [Example 73, (E)-1-(8-(7-(3-chloro-2-cyclopropyl-5-hydroxyphenyl)-8-fluoro-2-(((2R,7aS)-2-fluorotetrahydro-1H-pyrrolizin-7a(5H)-yl)methoxy)pyrido[4,3-d]pyrimidin-4-yl)-2-oxa-5,8-diazaspiro[3.5]nonan-5-yl)-3-((R)-1-methylazetidin-2-yl) prop-2-en-1-one], with less than 10 nM.

With `O=C(/C=C/CN1[C@@H]2CC[C@H]1COC2)N1CCN(c2nc(OC[C@@]34CCCN3C[C@H](F)C4)nc3c(F)c(-c4ccccc4C(F)F)ncc23)CC12COC2` [Example 26, (E)-4-((1R,5S)-3-oxa-8-azabicyclo[3.2.1]octan-8-yl)-1-(8-(7-(2-(difluoromethyl)phenyl)-8-fluoro-2-(((2R,7aS)-2-fluorotetrahydro-1H-pyrrolizin-7a(5H)-yl)methoxy)pyrido[4,3-d]pyrimidin-4-yl)-2-oxa-5,8-diazaspiro[3.5]nonan-5-yl) but-2-en-1-one], the IC50 fell in the range of 100 to 500 nM. As for `C=CC(=O)N1CCN(c2nc(OC[C@@]34CCCN3C[C@H](F)C4)nc3c(F)c(-c4c(Cl)c(C)cc5[nH]ncc45)ncc23)CC12COC2` [Example 51, 1-(8-(7-(5-chloro-6-methyl-1H-indazol-4-yl)-8-fluoro-2-(((2R,7aS)-2-fluorotetrahydro-1H-pyrrolizin-7a(5H)-yl)methoxy)pyrido[4,3-d]pyrimidin-4-yl)-2-oxa-5,8-diazaspiro[3.5]nonan-5-yl) prop-2-en-1-one], the IC50 lay within 10 to 100 nM. The value for `O=C(/C=C/CN1[C@@H]2CC[C@H]1COC2)N1CCN(c2nc(OC[C@@]34CCCN3C[C@H](F)C4)nc3c(F)c(-c4cccc5cccc(Cl)c45)ncc23)CC12COC2` [Example 4, (E)-4-((1R,5S)-3-oxa-8-azabicyclo[3.2.1]octan-8-yl)-1-(8-(7-(8-chloronaphthalen-1-yl)-8-fluoro-2-(((2R,7aS)-2-fluorotetrahydro-1H-pyrrolizin-7a(5H)-yl)methoxy)pyrido[4,3-d]pyrimidin-4-yl)-2-oxa-5,8-diazaspiro[3.5]nonan-5-yl) but-2-en-1-one] was less than 10 nM.
